US20220145264A1, “CULTURE MEDIUM FOR MAMMALIAN EXPANDED POTENTIAL STEM CELLS, COMPOSITION, AND METHODS THEREOF” (THE UNIVERSITY OF HONG KONG, priority 2019, published 2022)

How the values were obtained:
[1] = tested on: NANOS3-Tdtomato reporter EPSCs; assay: Differentiation to PGCLCs from NANOS3-Tdtomato reporter EPSCs (FACS); format: cell-based, human; conditions: 5.0 ng/ml supplemented in hEPSCM
Method: For human PGCLCs, the PGC differentiation potential of two hEPSC lines are tested with the sequential induction method. Human pre-mesoderm (pre-ME) was first induced in pre-ME media (Advanced RPMI 1640 Medium, 1% B27 supplement, 1×NEAA and 1× glutamine penicillin-streptomycin supplemented with 100 ng/ml Activin A (SCI), 3 μM CHIR99021 and 10 μM of ROCKi Y-27632) for 12 hours. Pre-ME were trypsinized into single cells and seeded into Corning Costar Ultra-Low attachment multi well 96-well plates (Corning, Cat. No. 7007) 4,000-5,000 cells per well in the […] PGCLC medium which was used for porcine PGCLC induction. To improve the cell aggregation, in all PGCLC induction experiments, 0.25% (v/v) poly-vinyl alcohol (Sigma, Cat. No. 341584) are added in the basal medium.

[2] = tested on: human ES cell (hESC) lines (H1, H9, M1, M10); assay: Culture of human ES cell lines in pEPSCM minus ACTIVIN A (colony formation); format: cell-based; conditions: removing ACTIVIN A (20 ng/ml) from pEPSCM
Excerpt: Human ESCs have been widely used in studying human embryo development in vitro and hold great potential for regenerative medicine. The finding that inhibition of SRC and Tankyrases is sufficient to convert mouse ESCs to mEPSCs and that these two inhibitors are required for the generation of pEPSCs raises the possibility that similar in vitro culture conditions may also work for other mammalian species. To explore this possibility, four established human ES cell (hESC) lines (H1, H9, Man1 or M1, and Man10 or M10 cells) are cultured in pEPSCM and passaged them up to three times. […] Removing ACTIVIN A (20 ng/ml) from pEPSCM led to considerably fewer cell colonies formed from H1 (<1.0%) and M1 (5.0%) ESC cultures, while none from H9 or M10 (Extended Data FIG. 7a), which is consistent with the inherent between-line heterogeneity of human ESCs. With further refinement of the culture conditions (for example, replacing WH-4-023 with another SRC inhibitor A419259 in hEPSCM, see Methods), morphologically homogenous and stable cell lines were established from single-cell sub-cloned H1 (H1-EPSCs) and M1 cells (M1-EPSCs) (FIG. 3a).

ACTIVIN A: Human Recombinant ACTIVIN A cytokine
NANOS3-tdTomato+ PGCLCs generated [1]: more and substantially increased | cell colonies formed ([2]; H1 ESC culture): < 1.0% | cell colonies formed ([2]; H9): none | cell colonies formed ([2]; M1 ESC culture): 5.0% | cell colonies formed ([2]; M10): none
